Laboratory results published in patent US8067445B2, “N,N-disubstituted aminoalkylbiphenyl antagonists of prostaglandin D2 receptors” (Panmira Pharmaceuticals, LLC, priority 2008, dated 2011).
pIC50: −log10 of the molar value.

Experiments:
human DP2 receptor = molecular target: T1, human DP2 receptor (Homo sapiens, UniProt Q9Y5Y4); test: DP2/CRTH2 radioligand binding assay ([3H]PGD2); conditions: [3H]PGD2 binding, membranes of HEK293 cells expressing human DP2; read-out: hDP2
T1 construct: expressed in transfected cells
T1 sequence (Q9Y5Y4 1-395): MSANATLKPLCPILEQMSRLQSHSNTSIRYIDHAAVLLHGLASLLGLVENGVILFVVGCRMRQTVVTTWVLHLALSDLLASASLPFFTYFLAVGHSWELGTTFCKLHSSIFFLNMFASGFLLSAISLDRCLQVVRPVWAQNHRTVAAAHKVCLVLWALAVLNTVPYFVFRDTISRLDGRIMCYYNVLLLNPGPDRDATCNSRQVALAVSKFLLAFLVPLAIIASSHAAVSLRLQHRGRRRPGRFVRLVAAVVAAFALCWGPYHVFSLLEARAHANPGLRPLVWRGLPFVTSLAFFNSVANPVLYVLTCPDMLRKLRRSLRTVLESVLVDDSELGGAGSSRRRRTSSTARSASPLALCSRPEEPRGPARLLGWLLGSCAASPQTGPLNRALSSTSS
Procedure, shortened: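 Membranes from HEK293 cells stably expressing recombinant human DP2 incubated 60 min at room temperature with 1 nM [3H]PGD2 and compound in pH 7.4 Hepes/MnCl2/EDTA buffer, ± 0.2% human serum albumin. Bound radioactivity measured after filtration; non-specific binding defined with 10 μM PGD2. IC50 from titration curves.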

[1] = molecular target: T2, recombinant human CRTH2 receptor (Homo sapiens, UniProt Q9Y5Y4); test: GTPγS binding assay; type: biochemical; conditions: +HSA (0.2% human serum albumin), 80 nM PGD2, CHO cell membranes; read-out: hDP2 GTPγS μM (+HSA)
T2 construct: expressed in transfected cells
T2 sequence (Q9Y5Y4 1-395): T1 sequence (Q9Y5Y4 1-395)
Description: The ability of a compound to inhibit binding of GTP to DP2 is assessed via a membrane GTPγS assay. CHO cells stably expressing the recombinant human CRTH2 receptor are resuspended in 10 mM Hepes, 7.4 containing 1 mM DTT, lysed and centrifuged at 75,000×g to pellet the membranes. The membranes are resuspended in 10 mM Hepes, 7.4 containing 1 mM DTT and 10% glycerol. […] The reactions are terminated by rapid filtration through Whatman GF/B glass fibre filter plates. The filter plates are washed 3 times with 1 ml cold Assay Buffer and dried. Scintillant is then added to the plates and the radioactivity retained on the filters is determined on a Packard TopCount (Perkin Elmer). Specific binding is determined as total radioactive binding minus non-specific binding in the absence of the ligand (80 nM PGD2). IC50s were determined using Graphpad prism analysis of drug titration curves.

human DP1 receptor = molecular target: T3, human DP1 receptor (Homo sapiens, UniProt Q13258); test: DP1 radioligand binding assay ([3H]BWA868C, platelet membranes); conditions: [3H]BWA868C binding, human platelet membranes; read-out: hDP1
T3 construct: tissue Biological Specialty Corporation; host or cells: human platelet membranes
T3 sequence (Q13258 1-359): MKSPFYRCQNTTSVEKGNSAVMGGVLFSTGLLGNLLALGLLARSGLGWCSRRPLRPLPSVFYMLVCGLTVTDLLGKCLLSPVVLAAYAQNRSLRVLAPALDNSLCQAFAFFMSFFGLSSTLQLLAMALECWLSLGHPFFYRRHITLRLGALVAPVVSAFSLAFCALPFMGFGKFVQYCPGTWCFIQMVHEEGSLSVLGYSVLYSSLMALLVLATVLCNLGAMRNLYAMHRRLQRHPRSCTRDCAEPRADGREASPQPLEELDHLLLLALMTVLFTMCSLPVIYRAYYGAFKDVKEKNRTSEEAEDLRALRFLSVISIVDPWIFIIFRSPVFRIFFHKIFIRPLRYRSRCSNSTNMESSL
Procedure, shortened: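 Human platelet membranes (20 μg protein/well) incubated 60 min at room temperature with 2 nM [3H]BWA868C and compound in 50 mM Hepes, 10 mM MnCl2, 1 mM EDTA, pH 7.4, ± 0.2% human serum albumin. Bound radioactivity measured after filtration; nonspecific binding defined with 10 μM BWA868C; IC50 from titration curves.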

Row | SMILES | pIC50 (human DP2 receptor) | IC50 [1] [µM] | pIC50 (human DP1 receptor)
1 | CCN(Cc1cc(C(F)(F)F)ccc1-c1cc(CC(=O)O)ccc1OC)C(=O)Nc1ccccc1Br [Compound 1-47, {2′-[3-(2-Bromo-phenyl)-1-ethyl-ureidomethyl]-6-methoxy-4′-trifluoromethyl-biphenyl-3-yl}-acetic acid] | > 6.52 | < 0.3 | 4.52 to 6.00
2 | CCN(Cc1cc(C(F)(F)F)ccc1-c1cc(CC(=O)O)ccc1OC)C(=O)N1CCCC1 [Compound 1-97, (2′-{[Ethyl-(pyrrolidine-1-carbonyl)-amino]-methyl}-6-methoxy-4′-trifluoromethyl-biphenyl-3-yl)-acetic acid] | > 6.52 | < 0.3 | 4.52 to 6.00
3 | CCN(Cc1cc(C(F)(F)F)ccc1-c1cc(C(C)C(=O)O)ccc1OC)C(=O)OCc1ccccc1 (stereo not drawn) [Compound 1-98, 2-{2′-[(Benzyloxycarbonyl-ethyl-amino)-methyl]-6-methoxy-4′-trifluoromethyl-biphenyl-3-yl}-propionic acid] | > 6.52 | < 0.3 | 4.52 to 6.00
4 | CCN(Cc1cc(C(F)(F)F)ccc1-c1cc(CC(=O)O)ccc1OC)C(=O)NC#N [Compound 1-99, [2′-(3-Cyano-1-ethyl-ureidomethyl)-6-methoxy-4′-trifluoromethyl-biphenyl-3-yl]-acetic acid] | > 6.52 | 0.3 to 1 | 4.52 to 6.00
5 | CCN(Cc1cc(C(F)(F)F)ccc1-c1cc(CC(=O)O)ccc1OC)S(=O)(=O)c1ccc(Cl)cc1 [Compound 1-100, (2′-{[(4-Chloro-benzenesulfonyl)-ethyl-amino]-methyl}-6-methoxy-4′-trifluoromethyl-biphenyl-3-yl)-acetic acid] | > 6.52 | 1 to 30 | 4.52 to 6.00
6 | CCN(Cc1cc(C(F)(F)F)ccc1-c1ccc(OC)c(CC(=O)O)c1)C(=O)OCc1ccccc1 [Compound 1-107, {2′-[(Benzyloxycarbonyl-ethyl-amino)-methyl]-4-methoxy-4′-trifluoromethyl-biphenyl-3-yl}-acetic acid] | > 6.52 | < 0.3 | 4.52 to 6.00
7 | CCN(Cc1cc(C(F)(F)F)ccc1-c1cc(Cl)cc(CC(=O)O)c1)C(=O)OCc1ccccc1 [Compound 1-108, {2′-[(Benzyloxycarbonyl-ethyl-amino)-methyl]-5-chloro-4′-trifluoromethyl-biphenyl-3-yl}-acetic acid] | > 6.52 | < 0.3 | 4.52 to 6.00
8 | CCN(Cc1cc(C(F)(F)F)ccc1-c1cc(CC(=O)O)cc(C(F)(F)F)c1)C(=O)OCc1ccccc1 [Compound 1-109, {2′-[(Benzyloxycarbonyl-ethyl-amino)-methyl]-5,4′-bis-trifluoromethyl-biphenyl-3-yl}-acetic acid] | > 6.52 | < 0.3 | 4.52 to 6.00
9 | CCN(Cc1cc(C(F)(F)F)ccc1-c1cc(CC(=O)O)ccc1OC)/C(=N/C#N)NCc1ccccc1 [Compound 1-111, [2′-(N′-Benzyl-N″-cyano-N-ethyl-guanidinomethyl)-6-methoxy-4′-trifluoromethyl-biphenyl-3-yl]-acetic acid] | > 6.52 | < 0.3 | 4.52 to 6.00
10 | CCN(Cc1cc(C(F)(F)F)ccc1-c1cc(CC(=O)O)ccc1OC)/C(=N/C#N)NCC1CCCCC1 [Compound 1-112, [2′-(N′-Cyano-N″-cyclohexylmethyl-N-ethyl-guanidinomethyl)-6-methoxy-4′-trifluoromethyl-biphenyl-3-yl]-acetic acid] | > 6.52 | < 0.3 | 4.52 to 6.00
11 | CCN(Cc1cc(C(F)(F)F)ccc1-c1cc(CC(=O)O)ccc1OC)/C(=N/C#N)NCC(C)(C)C [Compound 1-113, {2′-[N′-Cyano-N″-(2,2-dimethyl-propyl)-N-ethyl-guanidinomethyl]-6-methoxy-4′-trifluoromethyl-biphenyl-3-yl}-acetic acid] | > 6.52 | < 0.3 | 4.52 to 6.00
12 | CCN(Cc1cc(C(F)(F)F)ccc1-c1cc(CC(=O)O)ccc1OC)/C(=N/C#N)NCc1ccc(OC)cc1 [Compound 1-114, {2′-[N′-Cyano-N-ethyl-N″-(4-methoxy-benzyl)-guanidinomethyl]-6-methoxy-4′-trifluoromethyl-biphenyl-3-yl}-acetic acid] | > 6.52 | < 0.3 | 4.52 to 6.00
13 | CCN(Cc1cc(C(F)(F)F)ccc1-c1cc(CC(=O)O)ccc1OC)C(=O)CSc1ccccc1 [Compound 1-117, (2′-{[Ethyl-(2-phenylsulfanyl-acetyl)-amino]-methyl}-6-methoxy-4′-trifluoromethyl-biphenyl-3-yl)-acetic acid] | > 6.52 | < 0.3 | 4.52 to 6.00
14 | CCN(Cc1cc(C(F)(F)F)ccc1-c1cc(CC(=O)O)ccc1OC)C(=O)C[S+]([O-])c1ccccc1 (stereo not drawn) [Compound 1-119, (2′-{[(2-Benzenesulfinyl-acetyl)-ethyl-amino]-methyl}-6-methoxy-4′-trifluoromethyl-biphenyl-3-yl)-acetic acid] | > 6.52 | < 0.3 | 4.52 to 6.00
15 | CCN(Cc1cc(C(F)(F)F)ccc1-c1cc(CC(=O)O)ccc1OC)C(=O)CS(=O)(=O)c1ccccc1 [Compound 1-120, (2′-{[(2-Benzenesulfonyl-acetyl)-ethyl-amino]-methyl}-6-methoxy-4′-trifluoromethyl-biphenyl-3-yl)-acetic acid] | > 6.52 | < 0.3 | 4.52 to 6.00
16 | CCN(Cc1cc(C(F)(F)F)ccc1-c1cc(CC(=O)O)ccc1OC)C(=O)Nc1ccccc1 [Compound 1-121, [2′-(1-Ethyl-3-phenyl-ureidomethyl)-6-methoxy-4′-trifluoromethyl-biphenyl-3-yl]-acetic acid] | > 6.52 | < 0.3 | 4.52 to 6.00
17 | CCN(Cc1cccc(OC)c1-c1cccc(CC(=O)O)c1)C(=O)OCc1ccccc1 [Compound 1-122, {2′-[(Benzyloxycarbonyl-ethyl-amino)-methyl]-6′-methoxy-biphenyl-3-yl}-acetic acid] | > 6.52 | 1 to 30 | 6.00 to 6.52
18 | CCN(Cc1cccc(OC)c1-c1cccc(CC(=O)O)c1)C(=O)OCc1cc(F)cc(F)c1 [Compound 1-123, (2′-{[(3,5-Difluoro-benzyloxycarbonyl)-ethyl-amino]-methyl}-6′-methoxy-biphenyl-3-yl)-acetic acid] | > 6.52 | 0.3 to 1 | 6.00 to 6.52
19 | CCN(Cc1cc(C(F)(F)F)ccc1-c1ccc(Cl)c(CC(=O)O)c1)C(=O)OCc1ccccc1 [Compound 1-125, {2′-[(Benzyloxycarbonyl-ethyl-amino)-methyl]-4-chloro-4′-trifluoromethyl-biphenyl-3-yl}-acetic acid] | > 6.52 | 0.3 to 1 | 6.00 to 6.52
20 | CCN(Cc1cc(C(F)(F)F)ccc1-c1cc(F)cc(CC(=O)O)c1)C(=O)OCc1ccccc1 [Compound 1-126, {2′-[(Benzyloxycarbonyl-ethyl-amino)-methyl]-5-fluoro-4′-trifluoromethyl-biphenyl-3-yl}-acetic acid] | > 6.52 | < 0.3 | 6.00 to 6.52
21 | CCN(Cc1cc(C(F)(F)F)ccc1-c1ccc(F)c(CC(=O)O)c1)C(=O)OCc1ccccc1 [Compound 1-127, {2′-[(Benzyloxycarbonyl-ethyl-amino)-methyl]-4-fluoro-4′-trifluoromethyl-biphenyl-3-yl}-acetic acid] | > 6.52 | < 0.3 | 6.00 to 6.52
22 | CCN(Cc1cc(C(F)(F)F)ccc1-c1cc(CC(=O)O)ccc1OCc1ccccc1)C(=O)OCc1ccccc1 [Compound 1-128, {6-Benzyloxy-2′-[(benzyloxycarbonyl-ethyl-amino)-methyl]-4′-trifluoromethyl-biphenyl-3-yl}-acetic acid] | > 6.52 | < 0.3 | 6.00 to 6.52
